Laboratory results reported in PMC8342458, “GluN2A and GluN2B NMDA receptors use distinct allosteric routes” (Nature Communications, 2021).
“And” between values parts separate entries of the source, which are not always exact repeats. Equal entries are not always repeated. Where two headings read alike, the source gives them in different places.

Tests used:
[1] = target: T1, wild-type (wt) GluN1/GluN2B receptors (UniProt P35439+Q01097); test: TEVC recordings in Xenopus oocytes, allosteric modulator sensitivity; format: cell-based, rat (GluN1), mouse (GluN2B)
T1 construct: For full-length multimeric membrane-embedded receptors studied in cellulo, as done in the present work; expressed in transfected cells; host or cells: Xenopus laevis oocytes (nuclear cDNA injection, pcDNA3 plasmids)
T1 sequence (Q01097 27-1482, other chains not shown): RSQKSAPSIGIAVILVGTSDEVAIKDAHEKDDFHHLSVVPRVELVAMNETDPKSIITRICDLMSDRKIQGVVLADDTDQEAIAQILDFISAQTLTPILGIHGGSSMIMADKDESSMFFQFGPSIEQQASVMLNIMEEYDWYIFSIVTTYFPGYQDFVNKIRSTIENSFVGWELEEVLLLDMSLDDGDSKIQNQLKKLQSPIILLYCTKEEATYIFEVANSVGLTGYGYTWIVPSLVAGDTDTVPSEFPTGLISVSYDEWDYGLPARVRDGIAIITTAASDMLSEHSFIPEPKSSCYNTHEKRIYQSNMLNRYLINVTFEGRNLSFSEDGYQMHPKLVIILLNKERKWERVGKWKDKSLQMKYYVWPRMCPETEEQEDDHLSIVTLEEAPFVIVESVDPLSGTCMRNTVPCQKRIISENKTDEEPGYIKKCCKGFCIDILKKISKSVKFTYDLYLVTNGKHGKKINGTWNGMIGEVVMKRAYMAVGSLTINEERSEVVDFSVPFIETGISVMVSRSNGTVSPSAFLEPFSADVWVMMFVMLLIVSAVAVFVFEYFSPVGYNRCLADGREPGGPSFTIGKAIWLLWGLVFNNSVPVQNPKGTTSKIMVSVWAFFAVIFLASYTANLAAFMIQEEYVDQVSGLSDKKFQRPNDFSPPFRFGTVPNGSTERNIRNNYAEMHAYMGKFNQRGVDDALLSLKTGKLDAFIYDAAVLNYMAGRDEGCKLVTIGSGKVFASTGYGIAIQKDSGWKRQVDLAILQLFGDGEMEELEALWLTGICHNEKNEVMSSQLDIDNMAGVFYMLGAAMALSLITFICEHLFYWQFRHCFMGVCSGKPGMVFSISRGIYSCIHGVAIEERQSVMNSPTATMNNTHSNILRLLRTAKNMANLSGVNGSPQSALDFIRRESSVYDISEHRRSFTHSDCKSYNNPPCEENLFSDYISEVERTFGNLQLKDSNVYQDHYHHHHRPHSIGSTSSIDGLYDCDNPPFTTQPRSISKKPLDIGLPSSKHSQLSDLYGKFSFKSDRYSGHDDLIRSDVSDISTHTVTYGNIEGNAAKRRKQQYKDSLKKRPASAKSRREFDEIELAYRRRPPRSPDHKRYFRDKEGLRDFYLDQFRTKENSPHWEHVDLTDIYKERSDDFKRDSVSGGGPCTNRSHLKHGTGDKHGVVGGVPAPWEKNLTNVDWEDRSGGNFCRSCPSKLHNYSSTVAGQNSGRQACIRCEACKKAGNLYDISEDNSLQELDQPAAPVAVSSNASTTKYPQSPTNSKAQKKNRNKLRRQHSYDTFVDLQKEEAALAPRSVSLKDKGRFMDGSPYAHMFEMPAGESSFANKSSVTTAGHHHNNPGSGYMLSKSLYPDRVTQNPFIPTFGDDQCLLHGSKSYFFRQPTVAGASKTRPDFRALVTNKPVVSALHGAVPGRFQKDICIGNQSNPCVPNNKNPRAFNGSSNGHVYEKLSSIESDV
Protocol: (§1) The pcDNA3-based expression plasmids for rat GluN1-1a (named GluN1 herein), rat GluN2A, and mouse GluN2B (also known as ε2) subunits, Pfu-based site-directed mutagenesis strategy, and sequencing procedure have been described previously[68],[69]. Incorporation of the unnatural amino acids (UAAs) AzF and BzF into NMDARs was performed using the genetic code expansion methodology as previously described[52],[53],[83]. The plasmid pSVB.Yam carrying the gene encoding the amber suppressor tRNA derived from B. stearothermophilus Tyr-tRNACUA, while the aminoacyl-tRNA synthetases (aaRS) construction for AzF and BzF derived from E. coli TyrRS[84],[85].
(§2) Recombinant NMDARs were expressed in Xenopus laevis oocytes after nuclear injection of 36 nl of a mixture of cDNAs (at 10–30 ng/μl) encoding various GluN1 and GluN2 subunits (ratio 1:1). Oocytes were prepared, injected, incubated, and voltage-clamped as described previously. For UAA incorporation, oocytes were co-injected with 36 nl of a cDNA mixture encoding for of GluN1, GluN2, Yam, and aaRS as follows, unless otherwise indicated in the text: GluN1-K178amber (120 ng/μl), GluN2A (80 ng/µl) or GluN2B (120 ng/μl), Yam (10 ng/μl), AzF-RS (5 ng/μl). After injection, oocytes were incubated at 19 °C in a Barth solution containing (in mM) 88 NaCl, 1 KCl, 0.33 Ca(NO3)2, 0.41 CaCl2, 0.82 MgSO4, 2.4 NaHCO3, 10 HEPES (pH adjusted to 7.6 with NaOH) supplemented with gentamicin ([…]) and the NMDAR glutamate binding site competitive antagonist D-APV (50 μM). AzF and BzF were added to the incubation medium at final concentrations of 1 mM and 2 mM, respectively.
(§3) For all experiments, except those on pH and spermine sensitivity, the standard external solution contained (in mM): 100 NaCl, 0.3 BaCl2, and 5 HEPES (pH adjusted to 7.3 with KOH). […] For the pH and spermine sensitivity experiments, an external solution enriched in HEPES was used to insure proper pH buffering. Unless otherwise mentioned, NMDAR-mediated currents were induced by simultaneously applications of saturating concentrations of glutamate and glycine (100 μM each). Glutamate and glycine dose-response curves (DRC) were performed in the presence of 100 µM glycine and 100 µM glutamate, respectively. Recordings were performed at a holding potential of −60 mV and at room temperature. Data were collected and analyzed using Clampex 10.5 and Clampfit 10.5 (Molecular Devices), respectively, and fitted using KaleidaGraph 4.0 (Synergy software).
(§4) EC50 and nH were fitted as free parameters. […] For proton DRC, corrections for small shifts in the reference potential of bath electrodes and analysis of the data were performed as previously described. Spermine experiments were performed and analyzed as previously described. In brief, spermine sensitivity was assessed at pH 6.5 and at a holding potential of −30 mV to maximize the spermine induced potentiation. […] EC50, a and nH were set as free parameters. MK-801 is an NMDAR open channel blocker with slow reversibility and, consequently, the rate at which MK-801 inhibits NMDAR responses depends on the level of channel activity, that is, channel open probability (Po). Based on this principle, MK-801 is classically used to estimate the level of NMDAR channel activity in macroscopic whole-cell recordings[36],[47],[56],[86],[87]. Note, however, that MK- 801 inhibition kinetics can index relative, not absolute, Po. MK-801 solutions (10 nM for GluN2A-containing receptors and 50 nM for GluN2B-containing receptors) were prepared by dilution of a stock solution (50 mM) into the agonist containing solutions. MK-801 time constants of inhibition (τon) were obtained by fitting currents with a single-exponential component to a time window corresponding to 10–90% of maximum inhibition. On-rate (kon) constants were then calculated assuming a pseudo first-order reaction scheme: kon = 1 / ([MK-801]*τon).

[2] = target: T2, GluN1-K178AzF/GluN2B receptors (UniProt P35439+Q01097); test: TEVC recordings in Xenopus oocytes, modulator sensitivity before and after UV photocrosslinking; format: cell-based, rat (GluN1), mouse (GluN2B); conditions: read-out: Zn2+ IC50
T2 construct: For full-length multimeric membrane-embedded receptors studied in cellulo, as done in the present work; expressed in transfected cells; host or cells: Xenopus laevis oocytes, co-injected with amber suppressor tRNA (Yam) and AzF-RS
Protocol: as §1, §2, §3, §4

[3] = target: T3, GluN1-K178AzF/GluN2B receptors (UniProt P35439+Q01097, K178F); test: as above; format: cell-based, rat (GluN1), mouse (GluN2B); conditions: for Izn/Io 0.1 μM: 0.1 μM zinc; for Izn/Io 1 μM: 1 μM zinc; for Izn/Io 10 μM: 10 μM zinc
T3 construct: For full-length multimeric membrane-embedded receptors studied in cellulo, as done in the present work; expressed in transfected cells; host or cells: Xenopus laevis oocytes, co-injected with amber suppressor tRNA (Yam) and AzF-RS
T3 sequence (Q01097 27-1482, other chains not shown): as above
Protocol: as §1, §2, §3, §4

[4] = target: T4, GluN1/GluN2A-V217C receptors (Rattus norvegicus, UniProt P35439+Q00959, V217C); test: TEVC recordings in Xenopus oocytes, zinc inhibition dose-response; format: cell-based
T4 construct: For full-length multimeric membrane-embedded receptors studied in cellulo, as done in the present work; expressed in transfected cells; host or cells: Xenopus laevis oocytes
T4 sequence (Q00959 23-1464 V217C, other chains not shown): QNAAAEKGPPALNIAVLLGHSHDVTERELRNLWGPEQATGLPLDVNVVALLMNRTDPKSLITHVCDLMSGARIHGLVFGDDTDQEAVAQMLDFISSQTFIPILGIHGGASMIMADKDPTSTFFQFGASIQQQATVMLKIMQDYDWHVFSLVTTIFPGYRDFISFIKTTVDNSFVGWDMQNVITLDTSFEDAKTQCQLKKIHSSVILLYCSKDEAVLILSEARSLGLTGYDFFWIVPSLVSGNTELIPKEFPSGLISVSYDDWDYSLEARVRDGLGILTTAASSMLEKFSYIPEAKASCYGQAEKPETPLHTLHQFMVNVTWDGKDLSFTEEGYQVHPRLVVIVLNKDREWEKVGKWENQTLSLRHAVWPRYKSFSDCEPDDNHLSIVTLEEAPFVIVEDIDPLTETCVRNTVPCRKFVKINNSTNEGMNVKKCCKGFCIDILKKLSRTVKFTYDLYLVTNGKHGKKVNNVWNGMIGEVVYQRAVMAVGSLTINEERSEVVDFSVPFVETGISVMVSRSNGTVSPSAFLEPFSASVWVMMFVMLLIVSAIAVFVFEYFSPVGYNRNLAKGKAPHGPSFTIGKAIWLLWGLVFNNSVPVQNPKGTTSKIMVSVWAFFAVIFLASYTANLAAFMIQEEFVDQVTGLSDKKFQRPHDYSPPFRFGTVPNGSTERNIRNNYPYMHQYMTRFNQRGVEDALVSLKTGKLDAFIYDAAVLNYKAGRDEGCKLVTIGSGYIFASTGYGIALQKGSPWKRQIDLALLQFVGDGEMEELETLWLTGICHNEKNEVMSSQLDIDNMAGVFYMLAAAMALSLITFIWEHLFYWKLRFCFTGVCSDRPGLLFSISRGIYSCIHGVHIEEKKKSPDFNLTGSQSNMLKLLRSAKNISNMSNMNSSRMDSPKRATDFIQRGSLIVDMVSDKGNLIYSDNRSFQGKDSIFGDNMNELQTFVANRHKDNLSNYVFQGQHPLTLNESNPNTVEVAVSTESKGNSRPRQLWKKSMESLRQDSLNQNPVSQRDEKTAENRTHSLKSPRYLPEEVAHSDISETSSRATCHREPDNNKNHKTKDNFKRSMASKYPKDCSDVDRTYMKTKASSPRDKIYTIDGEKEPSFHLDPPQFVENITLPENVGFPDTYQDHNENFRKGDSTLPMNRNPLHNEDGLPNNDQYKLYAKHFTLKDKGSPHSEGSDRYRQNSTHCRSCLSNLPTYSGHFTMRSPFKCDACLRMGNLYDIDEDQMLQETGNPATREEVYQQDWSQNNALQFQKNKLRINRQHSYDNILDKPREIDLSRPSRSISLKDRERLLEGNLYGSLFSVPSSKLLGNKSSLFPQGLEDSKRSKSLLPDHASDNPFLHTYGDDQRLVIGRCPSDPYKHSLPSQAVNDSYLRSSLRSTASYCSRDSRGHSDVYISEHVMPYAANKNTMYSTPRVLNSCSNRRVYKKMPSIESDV
Protocol: as §1, §2, §3, §4

[5] = target: T5, GluN1-L777C/GluN2B-E517C-L781C receptors (UniProt P35439+Q01097, E517C/L777C/L781C/N521C); test: TEVC recordings in Xenopus oocytes, zinc and ifenprodil inhibition dose-response; format: cell-based, rat (GluN1), mouse (GluN2B); conditions: read-out: Zn2+ IC50
T5 construct: For full-length multimeric membrane-embedded receptors studied in cellulo, as done in the present work; expressed in transfected cells; host or cells: Xenopus laevis oocytes
Protocol: as §1, §2, §3, §4

[6] = target: T6, GluN1/GluN2B-N218C receptors (UniProt P35439+Q01097, N218C); test: as above; format: cell-based, rat (GluN1), mouse (GluN2B)
T6 construct: For full-length multimeric membrane-embedded receptors studied in cellulo, as done in the present work; expressed in transfected cells; host or cells: Xenopus laevis oocytes
Protocol: as §1, §2, §3, §4

[Zn+2] [zinc]
Zn2+ Hill slope (nH) [1]: 1.08 ± 0.04 and 1.20 ± 0.04 and 0.96 ± 0.10 | Izn/Io 0.1 μM ([1]; 0.1 μM zinc): 0.80 ± 0.02 and 0.87 ± 0.02 and 0.78 ± 0.01 | Izn/Io 0.3 μM ([1]; 0.3 μM zinc): 0.54 ± 0.03 | Izn/Io 1 μM ([1]; 1 μM zinc): 0.39 ± 0.005 and 0.46 ± 0.03 and 0.37 ± 0.03 | Izn/Io 3 μM ([1]; 3 μM zinc): 0.18 ± 0.09 | IC50 ([1]; read-out: Zn2+ IC50): 0.72 µM and 0.97 µM and 0.59 µM | IC50 ([2]; after UV): 7.96 ± 0.16 µM | IC50 ([2]; before UV): 0.54 ± 0.01 µM | Izn/Io 0.1 μM ([3]; +UV): 0.97 ± 0.02 | Izn/Io 0.1 μM ([3]; -UV): 0.73 ± 0.09 | Izn/Io 1 μM ([3]; +UV): 0.86 ± 0.03 | Izn/Io 1 μM ([3]; -UV): 0.33 ± 0.05 | Izn/Io 10 μM ([3]; +UV): 0.45 ± 0.08 | Izn/Io 10 μM ([3]; -UV): 0.04 ± 0.01 | Zn2+ Hill slope (nH) ([3]; after UV): 0.91 ± 0.02 | Zn2+ Hill slope (nH) ([3]; before UV): 1.02 ± 0.02 | increase in zinc IC50 following UV treatment ([3]; post-UV vs pre-UV): ~ 15 fold | Zn2+ Hill slope (nH) [4]: 0.44 ± 0.08 | maximal level of zinc inhibition [4]: 40% | Izn/Io 1 nM ([4]; 1 nM zinc): 0.86 ± 0.03 | Izn/Io 10 nM ([4]; 10 nM zinc): 0.78 ± 0.03 | Izn/Io 50 nM ([4]; 50 nM zinc): 0.70 ± 0.03 | Izn/Io 500 nM ([4]; 500 nM zinc): 0.65 ± 0.03 | Izn/Io 1000 nM ([4]; 1000 nM zinc): 0.64 ± 0.04 | IC50 ([4]; read-out: Zn2+ IC50): 0.00464 ± 0.00178 µM | IC50 [5]: 0.72 ± 0.05 µM | Zn2+ Hill slope (nH) [6]: 1.01 ± 0.01 | Izn/Io 0.1 μM ([6]; 0.1 μM zinc): 0.95 ± 0.07 | Izn/Io 1 μM ([6]; 1 μM zinc): 0.72 ± 0.08 | Izn/Io 10 μM ([6]; 10 μM zinc): 0.22 ± 0.07 | IC50 ([6]; read-out: Zn2+ IC50): 3.06 ± 0.04 µM
